In patent EP2892896B1 (Bristol-Myers Squibb Company, priority 2012, dated 2014):
pKi: −log10 of the molar value.

Molecular target: T1, human melanin concentrating hormone receptor (MCHR1) (Homo sapiens, UniProt Q99705, A5T/E4Q)
T1 construct: expressed in transfected cells; host or cells: HEK-293 (stably transfected), membranes
Assay: Radioligand binding assay for assessment of MCHR1 activity
Details: membranes from HEK-293 cells expressing a mutated (E4Q, A5T) hMCHR1 receptor; competition with 0.06 - 0.1 nM [Phe13, [125I]Tyr19]-MCH; 90 min
Procedure: Radioligand Binding Assay for Assessment of MCHR1 Activity
An in vitro binding assay was used to determine the compound Ki value or ability to antagonize binding of a peptide agonist to the human melanin concentrating hormone receptor (MCHR1). […] Binding experiments were carried out with 0.5-1.0 µg of membrane protein incubated in a total of 0.2 mL in 25 mM HEPES (pH 7.4) with 10 mM MgCl2, 2 mM EGTA, and 0.1% BSA (Binding Buffer) for 90 min. For competition binding assays, reactions were carried out in the presence of with 0.06 - 0.1 nM [Phe^13, [^125I]Tyr^19]-MCH and increasing concentrations of unlabeled test molecules. […] Filters were dried, 0.05 mL MicroScint 20 was added to each well and radioactivity was subsequently quantified by scintillation counting on a TOPCOUNT® microplate scintillation counter (Packard). Inhibitory constants were determined by nonlinear least squares analysis using a four parameter logistic equation.

T1 sequence (Q99705 whole entry E4Q/A5T): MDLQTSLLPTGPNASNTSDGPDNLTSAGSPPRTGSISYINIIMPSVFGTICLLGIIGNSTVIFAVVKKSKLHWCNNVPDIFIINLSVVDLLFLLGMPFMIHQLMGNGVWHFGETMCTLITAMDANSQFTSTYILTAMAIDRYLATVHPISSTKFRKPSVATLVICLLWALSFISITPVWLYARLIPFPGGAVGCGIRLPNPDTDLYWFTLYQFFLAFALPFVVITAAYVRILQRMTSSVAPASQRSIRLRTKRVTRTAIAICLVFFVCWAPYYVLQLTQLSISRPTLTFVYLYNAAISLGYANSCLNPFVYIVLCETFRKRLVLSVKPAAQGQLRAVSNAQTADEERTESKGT

SMILES | pKi
COc1cc(N2CC[C@@H](Oc3ccc(C(F)(F)F)cc3)C2=O)ccc1OCC(C)(C)O (single isomer, unassigned) [Example 9] | 7.64
COc1cc(N2CC[C@H](Oc3ccc(C(F)(F)F)cc3)C2=O)ccc1OCC(C)(C)O (single isomer, unassigned) [Example 10] | 5.22
COc1cc(N2CCC(Oc3ccccc3Cl)C2=O)ccc1OCC(C)(C)O (stereo not drawn) [Example 1, 3-(2-Chlorophenoxy)-1-(4-(2-hydroxy-2-methylpropoxy)-3-methoxyphenyl)pyrrolidin-2-one] | 5.30
COc1cc(N2CCC(Oc3cccc(Cl)c3)C2=O)ccc1OCC(C)(C)O (stereo not drawn) [Example 2] | 5.00
COc1cc(N2CCC(Oc3ccc(Cl)cc3)C2=O)ccc1OCC(C)(C)O (stereo not drawn) [Example 3] | 5.69
COc1cccc(OC2CCN(c3ccc(OCC(C)(C)O)c(OC)c3)C2=O)c1 (stereo not drawn) [Example 4] | 6.66
COc1ccc(OC2CCN(c3ccc(OCC(C)(C)O)c(OC)c3)C2=O)cc1 (stereo not drawn) [Example 5] | 6.18
COc1cc(N2CCC(Oc3ccccc3C(F)(F)F)C2=O)ccc1OCC(C)(C)O (stereo not drawn) [Example 6] | 5.15
COc1cc(N2CCC(Oc3cccc(C(F)(F)F)c3)C2=O)ccc1OCC(C)(C)O (stereo not drawn) [Example 7] | 5.22
COc1cc(N2CCC(Oc3ccc(C(F)(F)F)cc3)C2=O)ccc1OCC(C)(C)O (stereo not drawn) [Example 8] | 7.47
COc1cc(N2CCC(Oc3cccc(OC(F)(F)F)c3)C2=O)ccc1OCC(C)(C)O (stereo not drawn) [Example 11] | 5.30
COc1cc(N2CCC(C)(Oc3ccc(OC(F)(F)F)cc3)C2=O)ccc1OCC(C)(C)O (stereo not drawn) [Example 13, 1-(4-(2-Hydroxy-2-methylpropoxy)-3-methoxyphenyl)-3-methyl-3-(4-(trifluoromethoxy)phenoxy)pyrrolidin-2-one] | 6.33
COc1cc(N2CCC(Oc3ccc(OC(F)(F)F)cc3)C2=O)ccc1OCC(C)(C)O (stereo not drawn) [Example 14] | 6.87
COc1cc(N2CC[C@@H](Oc3ccc(OC(F)(F)F)cc3)C2=O)ccc1OCC(C)(C)O [Example 15] | 7.96
COc1cc(N2CC[C@H](Oc3ccc(OC(F)(F)F)cc3)C2=O)ccc1OCC(C)(C)O [Example 16] | 5.63
COc1cc(N2CCC(Oc3ccc(OC(F)(F)F)cc3Cl)C2=O)ccc1OCC(C)(C)O (stereo not drawn) [Example 17] | 6.40
COc1cc(N2CCC(Oc3ccc(OC(F)(F)F)c(F)c3)C2=O)ccc1OCC(C)(C)O (stereo not drawn) [Example 18] | 6.02
COc1cc(N2CCC(Oc3ccc(-c4ccccc4)cc3)C2=O)ccc1OCC(C)(C)O (stereo not drawn) [Example 19] | 8.40
COc1cc(N2CC[C@H](Oc3ccc(-c4ccccc4)cc3)C2=O)ccc1OCC(C)(C)O [Example 20] | 6.31

SMILES | pKi
COc1cc(N2CC[C@@H](Oc3ccc(-c4ccccc4)cc3)C2=O)ccc1OCC(C)(C)O [Example 21] | 8.70
COc1cc(N2CCC(Oc3ccc(C4CC4)cc3)C2=O)ccc1OCC(C)(C)O (stereo not drawn) [Example 22, 3-(4-Cyclopropylphenoxy)-1-(4-(2-hydroxy-2-methylpropoxy)-3-methoxyphenyl)pyrrolidin-2-one] | 7.64
COc1cc(N2CCC(Oc3ccc(OC4CC4)cc3)C2=O)ccc1OCC(C)(C)O (stereo not drawn) [Example 23] | 7.36
COc1cc(N2CCC(Oc3ccc(-c4ccccc4F)cc3)C2=O)ccc1OCC(C)(C)O (stereo not drawn) [Example 24, 3-(2'-Fluorobiphenyl-4-yloxy)-1-(4-(2-hydroxy-2-methylpropoxy)-3-methoxyphenyl)pyrrolidin-2-one] | 8.05
COc1cc(N2CCC(Oc3ccc(-c4ccccc4Cl)cc3)C2=O)ccc1OCC(C)(C)O (stereo not drawn) [Example 25] | 7.17
COc1cc(N2CCC(Oc3ccc(-c4ccccc4C)cc3)C2=O)ccc1OCC(C)(C)O (stereo not drawn) [Example 26] | 7.09
COc1cc(N2CCC(Oc3ccc(-c4ccccc4OC)cc3)C2=O)ccc1OCC(C)(C)O (stereo not drawn) [Example 27] | 6.62
COc1cc(N2CCC(Oc3ccc(-c4ccccc4C(F)(F)F)cc3)C2=O)ccc1OCC(C)(C)O (stereo not drawn) [Example 28] | 6.02
COc1cc(N2CCC(Oc3ccc(-c4ccccc4)c(Cl)c3)C2=O)ccc1OCC(C)(C)O (stereo not drawn) [Example 29] | 7.06
COc1cc(N2CCC(Oc3ccc(-c4ccccc4)c(F)c3)C2=O)ccc1OCC(C)(C)O (stereo not drawn) [Example 30] | 7.92
COc1cc(N2CCC(Oc3ccc(-c4ccccc4F)c(F)c3)C2=O)ccc1OCC(C)(C)O (stereo not drawn) [Example 31] | 7.47
COc1cc(N2CCC(Oc3ccc(-c4ccncc4Cl)cc3)C2=O)ccc1OCC(C)(C)O (stereo not drawn) [Example 32] | 6.20
Cc1cc(N2CCC(Oc3ccc(N4CCOCC4)cc3)C2=O)ccc1OCC(C)(C)O (stereo not drawn) [Example 33] | 6.04
COc1cc(N2CCC(Oc3ccc(-c4ccccc4)cn3)C2=O)ccc1OCC(C)(C)O (stereo not drawn) [Example 34, 1-(4-(2-Hydroxy-2-methylpropoxy)-3-methoxyphenyl)-3-(5-phenylpyridin-2-yloxy)pyrrolidin-2-one] | 7.89
COc1cc(N2CCC(Oc3ccc(-c4ccccc4)nc3)C2=O)ccc1OCC(C)(C)O (stereo not drawn) [Example 35] | 7.09
COc1cc(N2CCC(Oc3ccc(-c4cccnc4)cc3)C2=O)ccc1OCC(C)(C)O (stereo not drawn) [Example 36] | 7.17
COc1cc(N2CCC(Oc3ccc(-c4ccncc4)cc3)C2=O)ccc1OCC(C)(C)O (stereo not drawn) [Example 37] | 7.14
COc1cc(N2CCC(Oc3ccc(Br)c(F)c3)C2=O)ccc1OCC(C)(C)O (stereo not drawn) [Example 42] | 6.09

More lines, now with the values ahead:

pKi | SMILES
6.20 | Cc1cc(N2CC[C@@H](Oc3ccc(-c4ccccc4)cc3)C2=O)ccc1OCCS(C)(=O)=O (single isomer, unassigned) [Example 106]
8.30 | COc1cc(N2CCC(Oc3ccc(-n4cccc4)cc3)C2=O)ccc1OCC(C)(C)O (stereo not drawn) [Example 38]
6.32 | COc1cc(N2CCC(Oc3ccc(-n4ccnc4)cc3)C2=O)ccc1OCC(C)(C)O (stereo not drawn) [Example 39]
6.28 | COc1cc(N2CCC(Oc3ccc(Br)c(Cl)c3)C2=O)ccc1OCC(C)(C)O (stereo not drawn) [Example 41]
7.72 | COc1ccc(N2CCC(Oc3ccc(-c4ccccc4)cc3)C2=O)cc1OC (stereo not drawn) [Example 43]
8.40 | COc1cc(N2CC[C@@H](Oc3ccc(-c4ccccc4)cc3)C2=O)ccc1OC[C@H](O)C1CC1 [Example 44]
5.98 | COc1cc(N2CC[C@H](Oc3ccc(-c4ccccc4)cc3)C2=O)ccc1OC[C@H](O)C1CC1 [Example 45]
7.92 | COc1cc(N2CCC(Oc3ccc(C4CC4)cc3)C2=O)ccc1OC[C@H](O)C1CC1 (stereo partly drawn) [Example 46]
8.15 | COc1cc(N2CCC(Oc3ccc(-c4ccccc4)cc3)C2=O)ccc1OCC1(O)CC(F)(F)C1 (stereo not drawn) [Example 47]
6.71 | CCS(=O)(=O)C[C@H](O)COc1ccc(N2CCC(Oc3ccc(OC(F)(F)F)cc3)C2=O)cc1OC (stereo partly drawn) [Example 50]
7.11 | CCS(=O)(=O)C[C@@H](O)COc1ccc(N2CCC(Oc3ccc(OC(F)(F)F)cc3)C2=O)cc1OC (stereo partly drawn) [Example 51]
7.80 | CCS(=O)(=O)C[C@@H](O)COc1ccc(N2CCC(Oc3ccc(C4CC4)cc3)C2=O)cc1OC (stereo partly drawn) [Example 52]
6.96 | CCS(=O)(=O)C[C@@H](O)COc1ccc(N2CCC(Oc3ccc(C(F)(F)F)cc3)C2=O)cc1OC (stereo partly drawn) [Example 53]
7.68 | CCS(=O)(=O)C[C@@H](O)COc1ccc(N2CCC(Oc3ccc(-c4ccc(F)cc4)cc3)C2=O)cc1OC (stereo partly drawn) [Example 54]
7.42 | CCS(=O)(=O)C[C@@H](O)COc1ccc(N2CCC(Oc3ccc(-c4cccc(F)c4)cc3)C2=O)cc1OC (stereo partly drawn) [Example 55]
7.15 | CCS(=O)(=O)C[C@@H](O)COc1ccc(N2CCC(Oc3ccc(OC4CC4)cc3)C2=O)cc1OC (stereo partly drawn) [Example 56]
8.70 | COc1cc(N2CCC(Oc3ccc(-c4ccccc4)cc3)C2=O)ccc1OCC1(O)CCS(=O)(=O)CC1 (stereo not drawn) [Example 57]
8.05 | COc1cc(N2CCC(Oc3ccc(-c4ccccc4)cc3)C2=O)ccc1OC[C@H](O)CS(C)(=O)=O (stereo partly drawn) [Example 58, 3-(Biphenyl-4-yloxy)-1-(4-((S)-2-hydroxy-3-(methylsulfonyl)propoxy)-3-methoxyphenyl)pyrrolidin-2-one]
7.74 | COc1cc(N2CCC(Oc3ccc(-c4ccc(F)cc4)cc3)C2=O)ccc1OC[C@H](O)CS(C)(=O)=O (stereo partly drawn) [Example 59]
7.77 | COc1cc(N2CCC(Oc3ccc(C4CC4)cc3)C2=O)ccc1OC[C@H](O)CS(C)(=O)=O (stereo partly drawn) [Example 60]
7.19 | COc1cc(N2CCC(Oc3ccc(OC(F)(F)F)cc3)C2=O)ccc1OC[C@H](O)CS(C)(=O)=O (stereo partly drawn) [Example 61]
7.96 | COc1cc(N2CCC(Oc3ccc(-c4ccccc4)cc3)C2=O)ccc1OC[C@@H](O)CS(C)(=O)=O (stereo partly drawn) [Example 62]
7.42 | COc1cc(N2CCC(Oc3ccc(-c4ccc(F)cc4)cc3)C2=O)ccc1OC[C@@H](O)CS(C)(=O)=O (stereo partly drawn) [Example 63]
7.49 | COc1cc(N2CCC(Oc3ccc(C4CC4)cc3)C2=O)ccc1OC[C@@H](O)CS(C)(=O)=O (stereo partly drawn) [Example 64]
8.10 | COc1cc(N2CCC(Oc3ccc(OC(F)(F)F)cc3)C2=O)ccc1OCCS(C)(=O)=O (stereo not drawn) [Example 65, 1-(3-Methoxy-4-(2-(methylsulfonyl)ethoxy)phenyl)-3-(4-(trifluoromethoxy)phenoxy)pyrrolidin-2-one]
8.70 | COc1cc(N2CCC(Oc3ccc(-c4ccccc4)cc3)C2=O)ccc1OCCS(C)(=O)=O (stereo not drawn) [Example 66]
